For 55 molecules, inhibition results are on record in ChEMBL document CHEMBL4014283, “Structural insights of SmKDAC8 inhibitors: Targeting Schistosoma epigenetics through a combined structure-based 3D QSAR, in vitro and synthesis strategy” (Bioorg Med Chem, 2017).

The target in this assay is T1, Histone deacetylase 8 (Schistosoma mansoni) (UniProt A5H660).
T1 sequence (whole entry): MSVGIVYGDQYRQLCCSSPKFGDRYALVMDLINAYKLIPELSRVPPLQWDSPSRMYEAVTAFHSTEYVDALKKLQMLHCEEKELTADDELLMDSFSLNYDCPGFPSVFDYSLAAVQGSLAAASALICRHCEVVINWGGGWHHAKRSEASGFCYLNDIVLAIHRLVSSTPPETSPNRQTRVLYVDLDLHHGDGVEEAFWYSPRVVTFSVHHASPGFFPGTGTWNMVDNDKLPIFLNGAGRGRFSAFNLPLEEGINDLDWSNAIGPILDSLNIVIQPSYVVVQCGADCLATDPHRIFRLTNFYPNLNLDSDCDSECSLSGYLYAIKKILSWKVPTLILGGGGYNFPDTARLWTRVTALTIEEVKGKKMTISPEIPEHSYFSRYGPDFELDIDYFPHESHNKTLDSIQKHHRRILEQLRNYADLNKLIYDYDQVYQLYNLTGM
The assay is described as follows: Inhibition of Schistosoma mansoni KDAC8 at 30 uM using (FAM)-labeled peptide as substrate after 60 mins by microfluidic assay.
Broadly, the inhibition is the drop in the measured response relative to a control, in per cent. Lower therefore signals a weak effect. With `CC(C)[C@@H]1NC(=O)[C@@H]2CCCN2C(=O)[C@H]2CCCN2C(=O)C[C@H](C(=O)NCCC[S+](C)[O-])NC1=O` (stereo not given in full), the inhibition came out at 0%.

As for `CC(C)[C@@H]1NC(=O)[C@H]2CCCN2C(=O)[C@@H]2CCCN2C(=O)C[C@@H](C(=O)NCCSSCCNC(=O)[C@@H]2CC(=O)N3CCC[C@H]3C(=O)N3CCC[C@@H]3C(=O)N[C@@H](C(C)C)C(=O)N2)NC1=O`, the inhibition worked out at 0%.

The molecule `CC(C)[C@@H]1NC(=O)[C@H]2CCCN2C(=O)[C@@H]2CCCN2C(=O)C[C@@H](C(=O)NCCCS)NC1=O` returned an inhibition of 1.45%.

On to `CC(C)[C@@H]1NC(=O)[C@H]2CCCN2C(=O)[C@@H]2CCCN2C(=O)C[C@@H](C(=O)NCCCS(C)(=O)=O)NC1=O`, for which the inhibition was 0%.

In the case of `CC(C)[C@@H]1NC(=O)[C@@H]2CCCN2C(=O)[C@H]2CCCN2C(=O)C[C@@H](C(=O)NCCSSCCNP(=O)(Oc2ccccc2)Oc2ccccc2)NC1=O`, the inhibition was found to be 0%.

In turn, `COC(=O)CCCNC(=O)[C@H]1CC(=O)N2CCC[C@H]2C(=O)N2CCC[C@@H]2C(=O)N[C@@H](C(C)C)C(=O)N1` yielded an inhibition of 1.47%.

Regarding `CC(C)[C@@H]1NC(=O)[C@@H]2CCCN2C(=O)[C@H]2CCCN2C(=O)C[C@@H](C(=O)NCCCS)NC1=O`, the inhibition was 0.84%.

The molecule `CC(C)[C@@H]1NC(=O)[C@H]2CCCN2C(=O)[C@@H]2CCCN2C(=O)C[C@H](C(=O)NCCCSCCN)NC1=O` showed an inhibition of 0%.

On to `CC(C)[C@@H]1NC(=O)[C@@H]2CCCN2C(=O)[C@H]2CCCN2C(=O)C[C@H](C(=O)NCCCS)NC1=O`, for which the inhibition came out at 14.6%.

With `CSCCCNC(=O)[C@H]1CC(=O)N2CCC[C@H]2C(=O)N2CCC[C@@H]2C(=O)N[C@@H](C(C)C)C(=O)N1`, the inhibition is 0%.

With `CC(C)[C@@H]1NC(=O)[C@@H]2CCCN2C(=O)[C@H]2CCCN2C(=O)C[C@@H](C(=O)NCCC[S+](C)[O-])NC1=O` (stereo not given in full), the inhibition stood at 0%.

Take `COC(=O)CCCNC(=O)[C@@H]1CC(=O)N2CCC[C@H]2C(=O)N2CCC[C@@H]2C(=O)N[C@@H](C(C)C)C(=O)N1`: the inhibition amounted to 0%.

Regarding `CC(C)[C@@H]1NC(=O)[C@H]2CCCN2C(=O)[C@@H]2CCCN2C(=O)C[C@H](C(=O)NCCCC(=O)O)NC1=O`, the inhibition came to 0%.

On to `CC(C)[C@@H]1NC(=O)[C@H]2CCCN2C(=O)[C@@H]2CCCN2C(=O)C[C@H](C(=O)NCCS)NC1=O`, for which the inhibition was determined as 0%.

The molecule `CC(C)[C@@H]1NC(=O)[C@H]2CCCN2C(=O)[C@@H]2CCCN2C(=O)C[C@H](C(=O)NCCCS)NC1=O` returned an inhibition of 3.18%.

In the case of `CC(C)[C@@H]1NC(=O)[C@@H]2CCCN2C(=O)[C@H]2CCCN2C(=O)C[C@@H](C(=O)NCCCC(=O)NO)NC1=O`, the inhibition turned out to be 21.2%.

In the case of `COC(=O)CCCNC(=O)[C@@H]1CC(=O)N2CCC[C@@H]2C(=O)N2CCC[C@H]2C(=O)N[C@@H](C(C)C)C(=O)N1`, the inhibition was 0%.

In the case of `CC(C)[C@@H]1NC(=O)[C@H]2CCCN2C(=O)[C@@H]2CCCN2C(=O)C[C@H](C(=O)NCCCO)NC1=O`, the inhibition came out at 0%.

Take `CC(C)[C@@H]1NC(=O)[C@@H]2CCCN2C(=O)[C@H]2CCCN2C(=O)C[C@H](C(=O)NCCSSCCNP(=O)(Oc2ccccc2)Oc2ccccc2)NC1=O`: the inhibition is 3%.

As to `CC(C)[C@@H]1NC(=O)[C@@H]2CCCN2C(=O)[C@H]2CCCN2C(=O)C[C@@H](C(=O)NCCCO)NC1=O`, the inhibition was 0%.

With `CC(C)[C@@H]1NC(=O)[C@@H]2CCCN2C(=O)[C@H]2CCCN2C(=O)C[C@H](C(=O)NCCCC(=O)NO)NC1=O`, the inhibition amounted to 25.8%.

`CC(C)[C@@H]1NC(=O)[C@@H]2CCCN2C(=O)[C@H]2CCCN2C(=O)C[C@H](C(=O)NCCCO)NC1=O` returned an inhibition of 0%.

`CC(C)[C@@H]1NC(=O)[C@H]2CCCN2C(=O)[C@@H]2CCCN2C(=O)C[C@@H](C(=O)NCCS)NC1=O` showed an inhibition of 0%.

In the case of `O=C(O)CCCCN1C(=O)[C@H](CCC(=O)NC(c2ccccc2)(c2ccccc2)c2ccccc2)N=C(c2ccccc2)c2ccccc21`, the inhibition is 0%.

`CC(C)[C@@H]1NC(=O)[C@H]2CCCN2C(=O)[C@@H]2CCCN2C(=O)C[C@H](C(=O)Cc2ccccc2)NC1=O`: the inhibition came to 0%.

For the molecule `CC(C)[C@@H]1NC(=O)[C@@H]2CCCN2C(=O)[C@H]2CCCN2C(=O)C[C@H](C(=O)NCCCC(=O)O)NC1=O`, the inhibition is 0%.

Molecule `CC(C)[C@@H]1NC(=O)[C@@H]2CCCN2C(=O)[C@H]2CCCN2C(=O)C[C@H](C(=O)NCCCSSCCCNC(=O)[C@H]2CC(=O)N3CCC[C@@H]3C(=O)N3CCC[C@H]3C(=O)N[C@@H](C(C)C)C(=O)N2)NC1=O` registered an inhibition of 0%.

Consider `CC(C)[C@@H]1NC(=O)[C@@H]2CCCN2C(=O)[C@H]2CCCN2C(=O)C[C@H](C(=O)NCCSSCCNC(=O)[C@H]2CC(=O)N3CCC[C@@H]3C(=O)N3CCC[C@H]3C(=O)N[C@@H](C(C)C)C(=O)N2)NC1=O`, for which the inhibition came out at 0%.

`CC(C)[C@@H]1NC(=O)[C@@H]2CCCN2C(=O)[C@H]2CCCN2C(=O)C[C@@H](C(=O)NCCS)NC1=O` returned an inhibition of 0%.

In turn, `COC(=O)CCCNC(=O)[C@H]1CC(=O)N2CCC[C@@H]2C(=O)N2CCC[C@H]2C(=O)N[C@@H](C(C)C)C(=O)N1` showed an inhibition of 0%.

Turning to `CC(C)[C@@H]1NC(=O)[C@@H]2CCCN2C(=O)[C@H]2CCCN2C(=O)C[C@@H](C(=O)OCc2ccccc2)NC1=O`, the inhibition was determined as 0%.

For the molecule `CC(C)[C@@H]1NC(=O)[C@H]2CCCN2C(=O)[C@@H]2CCCN2C(=O)C[C@@H](C(=O)NCCCSSCCCNC(=O)[C@@H]2CC(=O)N3CCC[C@H]3C(=O)N3CCC[C@@H]3C(=O)N[C@@H](C(C)C)C(=O)N2)NC1=O`, the inhibition was determined as 0%.

`CSCCCNC(=O)[C@@H]1CC(=O)N2CCC[C@H]2C(=O)N2CCC[C@@H]2C(=O)N[C@@H](C(C)C)C(=O)N1` yielded an inhibition of 0%.

`CC(C)[C@@H]1NC(=O)[C@H]2CCCN2C(=O)[C@@H]2CCCN2C(=O)C[C@H](C(=O)NCCC[S+](C)[O-])NC1=O` (stereo not given in full) came in with an inhibition of 0%.

In turn, `CC(C)[C@@H]1NC(=O)[C@@H]2CCCN2C(=O)[C@H]2CCCN2C(=O)C[C@H](C(=O)NCCSSCCN)NC1=O` registered an inhibition of 0%.

Molecule `CC(C)[C@@H]1NC(=O)[C@@H]2CCCN2C(=O)[C@H]2CCCN2C(=O)C[C@@H](C(=O)NCCCN)NC1=O` yielded an inhibition of 0%.

Molecule `CC(C)[C@@H]1NC(=O)[C@H]2CCCN2C(=O)[C@@H]2CCCN2C(=O)C[C@@H](C(=O)NCCCC(=O)O)NC1=O` registered an inhibition of 0%.

The molecule `CC(C)[C@@H]1NC(=O)[C@@H]2CCCN2C(=O)[C@H]2CCCN2C(=O)C[C@H](C(=O)NCCCN)NC1=O` gave an inhibition of 0%.

As for `CC(C)[C@@H]1NC(=O)[C@@H]2CCCN2C(=O)[C@H]2CCCN2C(=O)C[C@H](C(=O)O)NC1=O`, the inhibition was 0%.

`CC(C)[C@@H]1NC(=O)[C@@H]2CCCN2C(=O)[C@H]2CCCN2C(=O)C[C@@H](C(=O)NCCCC(=O)O)NC1=O`: the inhibition came to 0%.

Take `CC(C)[C@@H]1NC(=O)[C@@H]2CCCN2C(=O)[C@H]2CCCN2C(=O)C[C@@H](C(=O)O)NC1=O`: the inhibition was 0%.

Consider `CC(C)[C@@H]1NC(=O)[C@H]2CCCN2C(=O)[C@@H]2CCCN2C(=O)C[C@H](C(=O)O)NC1=O`, for which the inhibition came to 0%.

For `CSCCCNC(=O)[C@H]1CC(=O)N2CCC[C@@H]2C(=O)N2CCC[C@H]2C(=O)N[C@@H](C(C)C)C(=O)N1`, the inhibition was found to be 0%.

In turn, `CC(C)[C@@H]1NC(=O)[C@@H]2CCCN2C(=O)[C@H]2CCCN2C(=O)C[C@@H](C(=O)NCCSSCCN)NC1=O` yielded an inhibition of 0%.

As for `CC(C)[C@@H]1NC(=O)[C@H]2CCCN2C(=O)[C@@H]2CCCN2C(=O)C[C@@H](C(=O)OCc2ccccc2)NC1=O`, the inhibition was determined as 0%.

Molecule `CC(C)[C@@H]1NC(=O)[C@@H]2CCCN2C(=O)[C@H]2CCCN2C(=O)C[C@@H](C(=O)NCCCSSCCCNC(=O)[C@@H]2CC(=O)N3CCC[C@@H]3C(=O)N3CCC[C@H]3C(=O)N[C@@H](C(C)C)C(=O)N2)NC1=O` returned an inhibition of 0%.

In turn, `CC(C)[C@@H]1NC(=O)[C@@H]2CCCN2C(=O)[C@H]2CCCN2C(=O)C[C@H](C(=O)NCCS)NC1=O` had an inhibition of 8.3%.

For `CC(C)[C@@H]1NC(=O)[C@H]2CCCN2C(=O)[C@@H]2CCCN2C(=O)C[C@H](C(=O)NCCCS(C)(=O)=O)NC1=O`, the inhibition was found to be 0%.

Take `CC(C)[C@@H]1NC(=O)[C@H]2CCCN2C(=O)[C@@H]2CCCN2C(=O)C[C@@H](C(=O)O)NC1=O`: the inhibition was 0%.

Turning to `CC(C)[C@@H]1NC(=O)[C@H]2CCCN2C(=O)[C@@H]2CCCN2C(=O)C[C@@H](C(=O)NCCCSCCN)NC1=O`, the inhibition stood at 0%.

For the molecule `CC(C)[C@@H]1NC(=O)[C@H]2CCCN2C(=O)[C@@H]2CCCN2C(=O)C[C@H](C(=O)NCCSSCCNC(=O)[C@H]2CC(=O)N3CCC[C@H]3C(=O)N3CCC[C@@H]3C(=O)N[C@@H](C(C)C)C(=O)N2)NC1=O`, the inhibition stood at 0%.

Molecule `CC(C)[C@@H]1NC(=O)[C@H]2CCCN2C(=O)[C@@H]2CCCN2C(=O)C[C@@H](C(=O)NCCC[S+](C)[O-])NC1=O` (stereo not given in full) registered an inhibition of 0%.

`CC(C)[C@@H]1NC(=O)[C@@H]2CCCN2C(=O)[C@H]2CCCN2C(=O)C[C@@H](C(=O)NCCCS(C)(=O)=O)NC1=O` registered an inhibition of 0%.

The molecule `CC(C)[C@@H]1NC(=O)[C@@H]2CCCN2C(=O)[C@H]2CCCN2C(=O)C[C@H](C(=O)NCCCS(C)(=O)=O)NC1=O` yielded an inhibition of 0%.

`CSCCCNC(=O)[C@@H]1CC(=O)N2CCC[C@@H]2C(=O)N2CCC[C@H]2C(=O)N[C@@H](C(C)C)C(=O)N1` yielded an inhibition of 0%.
